Test results reported in PubChem BioAssay AID248 (DTP/NCI, 2004).
“And” between values parts separate entries of the source, which are not always exact repeats. Equal values may be shown once. Toxic doses and inconclusive results are not listed. Cut-off read from the data, not from the text of the source: active = T/C of 150% or more; inactive = T/C below 125%.

System: L1210 leukemia ip in BDF1 mice, survival T/C
Assay: NCI In Vivo Anticancer Drug Screen. Data for tumor model L1210 Leukemia (intraperitoneal) in B6D2F1 (BDF1) mice
Details: endpoint: mean survival time, higher = longer survival
Method in brief: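 Mice bearing the transplanted tumor received compound or vehicle. Survival of the treated group was divided by that of the vehicle-treated control group to give the ratio.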

[1] = dose: 25.0 mg/kg/injection, schedule: Q01DX001 (ip), vehicle: saline
[2] = dose: 50.0 mg/kg/injection, schedule: Q01DX001 (ip), vehicle: saline
[3] = dose: 100.0 mg/kg/injection, schedule: Q01DX001 (ip), vehicle: saline
[4] = dose: 100.0 mg/kg/injection, schedule: Q04DX003 (ip), vehicle: Klucel (hydroxypropylcellulose) (HPC)
[5] = dose: 200.0 mg/kg/injection, schedule: Q04DX003 (ip), vehicle: Klucel (hydroxypropylcellulose) (HPC)
[6] = dose: 400.0 mg/kg/injection, schedule: Q04DX003 (ip), vehicle: Klucel (hydroxypropylcellulose) (HPC)

Measured: T/C

CCOc1ccc(NC(=O)Oc2ccc(-c3ccccc3)cc2)cc1
inactive: dose: 100.0 mg/kg/injection, schedule: Q01DX001 (ip), vehicle: saline with Tween-80 93 % of control | dose: 100.0 mg/kg/injection, schedule: Q01DX009 (ip), vehicle: saline with Tween-80 100 % of control and 90 % of control | dose: 100.0 mg/kg/injection, schedule: Q04DX002 (ip), vehicle: saline with Tween-80 104 % of control and 106 % of control | dose: 200.0 mg/kg/injection, schedule: Q01DX001 (ip), vehicle: saline with Tween-80 91 % of control | dose: 200.0 mg/kg/injection, schedule: Q01DX009 (ip), vehicle: saline with Tween-80 87 % of control and 92 % of control | dose: 200.0 mg/kg/injection, schedule: Q04DX002 (ip), vehicle: saline with Tween-80 100 % of control and 101 % of control | dose: 400.0 mg/kg/injection, schedule: Q01DX001 (ip), vehicle: saline with Tween-80 89 % of control | dose: 400.0 mg/kg/injection, schedule: Q01DX009 (ip), vehicle: saline with Tween-80 97 % of control and 87 % of control | dose: 400.0 mg/kg/injection, schedule: Q04DX002 (ip), vehicle: saline with Tween-80 92 % of control

CC(=N/NC(=O)c1ccc[n+](C)c1)/C(C)=N\NC(=O)c1ccc[n+](C)c1
inactive: [1] 95 % of control | [2] 95 % of control

O=C1c2cccc(Cl)c2C(=O)c2c(NCCO)cccc21
inactive: dose: 100.0 mg/kg/injection, schedule: Q01DX001 (ip), vehicle: Klucel (hydroxypropylcellulose) (HPC) 96 % of control | dose: 200.0 mg/kg/injection, schedule: Q01DX001 (ip), vehicle: Klucel (hydroxypropylcellulose) (HPC) 101 % of control | dose: 400.0 mg/kg/injection, schedule: Q01DX001 (ip), vehicle: Klucel (hydroxypropylcellulose) (HPC) 97 % of control

CC1(C)C(C)(C)C12C=CC=C2
inactive: [1] 104 % of control | [2] 102 % of control | [3] 101 % of control

CC1Oc2ccccc2-c2c(-c3ccccc3)nnc(-c3ccccc3)c21 (centres undefined)
inactive: dose: 100.0 mg/kg/injection, schedule: Q04DX003 (ip), vehicle: gum acacia 95 % of control | dose: 200.0 mg/kg/injection, schedule: Q04DX003 (ip), vehicle: gum acacia 102 % of control | dose: 400.0 mg/kg/injection, schedule: Q04DX003 (ip), vehicle: gum acacia 98 % of control

OCC1OC(n2c(Cl)nc3cc(Cl)c(Cl)cc32)C(O)C1O (centres undefined)
inactive: dose: 100.0 mg/kg/injection, schedule: Q01DX005 (ip), vehicle: saline 96 % of control | dose: 200.0 mg/kg/injection, schedule: Q01DX005 (ip), vehicle: saline 96 % of control

O=S(=O)(Nc1ccc(Br)c2ccccc12)c1ccccc1
inactive: dose: 25.0 mg/kg/injection, schedule: Q01DX001 (ip), vehicle: saline sonified 97 % of control | dose: 50.0 mg/kg/injection, schedule: Q01DX001 (ip), vehicle: saline sonified 92 % of control | dose: 100.0 mg/kg/injection, schedule: Q01DX001 (ip), vehicle: saline sonified 92 % of control

CC1(CCC(=O)/C=C/c2ccccc2)CCC/C(=C/c2ccccc2)C1=O (centres undefined)
inactive: dose: 12.5 mg/kg/injection, schedule: Q01DX009 (ip), vehicle: Klucel (hydroxypropylcellulose) (HPC) 97 % of control | dose: 25.0 mg/kg/injection, schedule: Q01DX009 (ip), vehicle: Klucel (hydroxypropylcellulose) (HPC) 101 % of control | dose: 50.0 mg/kg/injection, schedule: Q01DX009 (ip), vehicle: Klucel (hydroxypropylcellulose) (HPC) 103 % of control | [4] 91 % of control | [5] 91 % of control | [6] 91 % of control

COc1ccc(O)cc1C
inactive: dose: 100.0 mg/kg/injection, schedule: Q04DX003 (ip), vehicle: other 104 % of control | dose: 200.0 mg/kg/injection, schedule: Q04DX003 (ip), vehicle: other 107 % of control | dose: 400.0 mg/kg/injection, schedule: Q04DX003 (ip), vehicle: other 117 % of control

Clc1ccc(-c2ncnc3c2Cc2ccccc2-3)cc1
inactive: dose: 100.0 mg/kg/injection, schedule: Q01DX009 (ip), vehicle: saline sonified 98 % of control | dose: 100.0 mg/kg/injection, schedule: Q04DX003 (ip), vehicle: saline sonified 99 % of control | dose: 200.0 mg/kg/injection, schedule: Q01DX009 (ip), vehicle: saline sonified 98 % of control | dose: 200.0 mg/kg/injection, schedule: Q04DX003 (ip), vehicle: saline sonified 99 % of control | dose: 400.0 mg/kg/injection, schedule: Q01DX009 (ip), vehicle: saline sonified 97 % of control | dose: 400.0 mg/kg/injection, schedule: Q04DX003 (ip), vehicle: saline sonified 96 % of control

CN1CCCCC1(Cc1ccccc1)Cc1ccccc1
inactive: dose: 50.0 mg/kg/injection, schedule: Q01DX009 (ip), vehicle: saline 102 % of control | dose: 100.0 mg/kg/injection, schedule: Q01DX009 (ip), vehicle: saline 90 % of control | dose: 100.0 mg/kg/injection, schedule: Q04DX003 (ip), vehicle: saline 106 % of control | dose: 200.0 mg/kg/injection, schedule: Q04DX003 (ip), vehicle: saline 95 % of control

Cc1ccc(C(Br)C2=CC(C)(C)c3ccccc3C2=O)cc1 (centres undefined)
inactive: dose: 100.0 mg/kg/injection, schedule: Q01DX009 (ip), vehicle: Klucel (hydroxypropylcellulose) (HPC) 106 % of control | [4] 106 % of control | dose: 200.0 mg/kg/injection, schedule: Q01DX009 (ip), vehicle: Klucel (hydroxypropylcellulose) (HPC) 101 % of control | [5] 104 % of control | dose: 400.0 mg/kg/injection, schedule: Q01DX009 (ip), vehicle: Klucel (hydroxypropylcellulose) (HPC) 98 % of control | [6] 104 % of control

CC1(NC(=O)N(CCCl)N=O)CCCC1
inactive: dose: 16.0 mg/kg/injection, schedule: Q01DX001 (ip), vehicle: carboxymethylcellulose (CMC) 95 % of control | dose: 31.0 mg/kg/injection, schedule: Q01DX001 (ip), vehicle: carboxymethylcellulose (CMC) 113 % of control
active: dose: 62.0 mg/kg/injection, schedule: Q01DX001 (ip), vehicle: carboxymethylcellulose (CMC) 157 % of control | dose: 125.0 mg/kg/injection, schedule: Q01DX001 (ip), vehicle: carboxymethylcellulose (CMC) 282 % of control | dose: 250.0 mg/kg/injection, schedule: Q01DX001 (ip), vehicle: carboxymethylcellulose (CMC) 329 % of control

CN(C)c1ccc(/C=C\c2ccnc3ccccc23)cc1
inactive: dose: 10.0 mg/kg/injection, schedule: Q01DX Z (ip), vehicle: methylcellulose (MC) 98 % of control | dose: 18.0 mg/kg/injection, schedule: Q01DX010 (ip), vehicle: saline 93 % of control and 102 % of control | dose: 27.0 mg/kg/injection, schedule: Q01DX010 (ip), vehicle: saline 95 % of control and 102 % of control | dose: 40.0 mg/kg/injection, schedule: Q01DX010 (ip), vehicle: saline 101 % of control and 91 % of control | dose: 50.0 mg/kg/injection, schedule: Q01DX001 (ip), vehicle: carboxymethylcellulose (CMC) 106 % of control | dose: 60.0 mg/kg/injection, schedule: Q01DX010 (ip), vehicle: saline 86 % of control and 90 % of control | dose: 100.0 mg/kg/injection, schedule: Q01DX001 (ip), vehicle: carboxymethylcellulose (CMC) 97 % of control | dose: 200.0 mg/kg/injection, schedule: Q01DX001 (ip), vehicle: carboxymethylcellulose (CMC) 89 % of control | dose: 400.0 mg/kg/injection, schedule: Q01DX001 (ip), vehicle: carboxymethylcellulose (CMC) 101 % of control

O=c1c(N=Nc2ccc(Br)cc2)c(O)n(-c2ccc(Br)cc2)c(=S)n1-c1ccccc1
inactive: dose: 37.5 mg/kg/injection, schedule: Q01DX001 (ip), vehicle: Klucel (hydroxypropylcellulose) (HPC) 108 % of control | dose: 75.0 mg/kg/injection, schedule: Q01DX001 (ip), vehicle: Klucel (hydroxypropylcellulose) (HPC) 110 % of control | dose: 150.0 mg/kg/injection, schedule: Q01DX001 (ip), vehicle: Klucel (hydroxypropylcellulose) (HPC) 102 % of control

CCCCCCCCCCCCOP(=O)(OCCCCCCCCCCCC)c1ccccc1
inactive: [2] 100 % of control | [3] 97 % of control | dose: 200.0 mg/kg/injection, schedule: Q01DX001 (ip), vehicle: saline 94 % of control | dose: 400.0 mg/kg/injection, schedule: Q01DX001 (ip), vehicle: saline 91 % of control

C=CCC1CC2(C)C(CCC3C2CCC2(C)C(C(C)CCCC(C)C)CCC32)CC1O (centres undefined)
inactive: dose: 100.0 mg/kg/injection, schedule: Q01DX009 (ip), vehicle: gum acacia 87 % of control | dose: 200.0 mg/kg/injection, schedule: Q01DX009 (ip), vehicle: gum acacia 87 % of control | dose: 400.0 mg/kg/injection, schedule: Q01DX009 (ip), vehicle: gum acacia 104 % of control
